Data as given in ChEMBL document CHEMBL1154895, “Cytotoxic neoclerodane diterpenoids from Scutellaria barbata” (J Nat Prod, 2010).

Tested on: SK-BR-3
Test: Cytotoxicity against human SK-BR-3 cells after 48 hrs by MTT assay
Format: functional, cell-based
Details: SK-BR-3, 48 h

Question: Which IC50 does the source give for `CC(=O)O[C@@H](CC1=C(O)C(=O)OC1)[C@]1(C)[C@H]2CCC=C(C)[C@]2(C)[C@@H](OC(=O)c2ccccc2)[C@H](OC(=O)c2ccccc2)[C@]1(C)O` (mixture of isomers) [SCUTEBATA A] here?
Answer: 15.2 µM
